Assay results reported in patent publication US9834559B2, “4-Amino-6-phenyl-5,6-dihydroimidazo[1,5-a]pyrazin-3(2H)-one derivatives as inhibitors of beta-secretase (BACE)” (Janssen Pharmaceutica NV, priority 2013, dated 2017).

Columns and labels:
[1] = system: Abeta 1-42 produced and secreted by human neuroblastoma SKNBE2 cells expressing hAPP695; test: Cellular αLisa assay in SKNBE2 cells, Abeta 1-42; format: cell-based; conditions: 18 hours incubation, read-out: Cellular αLisa assay in SKNBE2 cells Abeta 42 pIC50 (converted)
Procedure: In two αLisa assays the levels of Abeta total and Abeta 1-42 produced and secreted into the medium of human neuroblastoma SKNBE2 cells are quantified. The assay is based on the human neuroblastoma SKNBE2 expressing the wild type Amyloid Precursor Protein (hAPP695). The compounds are diluted and added to these cells, incubated for 18 hours and then measurements of Abeta 1-42 and Abeta total are taken. Abeta total and Abeta 1-42 are measured by sandwich αLisa. αLisa is a sandwich assay using biotinylated antibody AbN/25 attached to streptavidin coated beads and antibody Ab4G8 or cAb42/26 conjugated acceptor beads for the detection of Abeta total and Abeta 1-42 respectively. In the presence of Abeta total or Abeta 1-42, the beads come into close proximity. The excitation of the donor beads provokes the release of singlet oxygen molecules that trigger a cascade of energy transfer in the acceptor beads, resulting in light emission. Light emission is measured after 1 hour incubation (excitation at […] and emission at 615 nm).
A best-fit curve is fitted by a minimum sum of squares method to the plot of % Controlmin versus compound concentration. From this an IC50 value (inhibitory concentration causing 50% inhibition of activity) can be obtained. • LC=Median of the low control values • =Low control: cells preincubated without compound, without biotinylated Ab in the αLisa • HC=Median of the High control values • =High Control: cells preincubated without compound • % Effect=100−[(sample−LC)/(HC−LC)*100] • % Control=(sample/HC)*100 • % Controlmin=(sample−LC)/(HC−LC)*100

[2] = system: brain levels of soluble Aβ40 and Aβ42; test: In vivo Aβ lowering, brain levels of soluble Aβ by MSD electrochemiluminescence; parameters: species or system mouse; conditions: untreated control = 100
From the text: To determine whether acute administration of an Aβ lowering agent would reduce Aβ levels in vivo, non-transgenic rodents, e.g. mice or rats were used. Animals treated with the Aβ lowering agent were examined and compared to those untreated or treated with vehicle and brain levels of soluble Aβ42, Aβ40, Aβ38, and Aβ37 were quantitated by Meso Scale Discovery's (MSD) electrochemiluminescence detection technology. Treatment periods varied from hours (h) to days and were adjusted based on the results of the Aβ lowering once a time course of onset of effect could be established.
A typical protocol for measuring Aβ lowering in vivo is shown but it is only one of many variations that could be used to optimize the levels of detectable Aβ. For example, Aβ lowering compounds were formulated in 20% of Captisol® (a sulfo-butyl ether of β-cyclodextrin) in water or 20% hydroxypropyl β cyclodextrin. The Aβ lowering agents were administered as a single oral dose or by any acceptable route of administration to overnight fasted animals. After 4 h, the animals were sacrificed and Aβ levels were analysed.
Blood was collected by decapitation and exsanguinations in EDTA-treated collection tubes. Blood was centrifuged at 1900 g for 10 minutes (min) at 4° C. and the plasma recovered and flash frozen for later analysis. The brain was removed from the cranium and hindbrain. The cerebellum was removed and the left and right hemisphere were separated. The left hemisphere was stored at −18° C. for quantitative analysis of test compound levels. The right hemisphere was rinsed with phosphate-buffered saline (PBS) buffer and immediately frozen on dry ice and stored at −80° C. until homogenization for biochemical assays.
Mouse brains from non-transgenic animals were resuspended in 8 volumes of 0.4% DEA (diethylamine)/50 mM NaCl containing protease inhibitors (Roche-11873580001 or 04693159001) per gram of tissue, e.g. for 0.158 g brain, add 1.264 ml of 0.4% DEA. All samples were homogenized in the FastPrep-24 system (MP Biomedicals) using lysing matrix D (MPBio #6913-100) at 6 m/s for 20 seconds. Homogenates were centrifuged at 20800×g for 5 min and supernatants collected. Supernatants were centrifuged at 221.300×g for 50 min. The resulting high speed supernatants were then transferred to fresh eppendorf tubes. Nine parts of supernatant were neutralized with 1 part 0.5 M Tris-HCl pH 6.8 and used to quantify Aβ.
To quantify the amount of Aβ42, Aβ40, Aβ38, and Aβ37 in the soluble fraction of the brain homogenates, simultaneous specific detection of Aβ42, Aβ40, Aβ38, and Aβ37 was performed using MSD's electro-chemiluminescence multiplex detection technology. In this assay purified monoclonal antibodies specific for Abeta37 (JRD/Aβ37/3), Abeta38 (J&JPRD/Aβ38/5), Abeta40 (JRF/cAβ40/28), and Abeta42 (JRF/cAβ42/26) were coated on MSD 4-plex plates. Briefly, the standards (a dilution of synthetic Aβ42, Aβ40, Aβ38, and Aβ37) were prepared in 1.5 ml Eppendorf tube in Ultraculture, with final concentrations ranging from 10000 to 0.3 pg/m. The samples and standards were co-incubated with Sulfo-tag labelled JRF/rAβ/2 antibody to the N-terminus of Aβ as detector antibody. 50 μl of conjugate/sample or conjugate/standards mixtures were then added to the antibody-coated plate. The plate was allowed to incubate overnight at 4° C. in order to allow formation of the antibody-amyloid complex. Following this incubation and subsequent wash steps the assay was finished by adding read buffer according to the manufacturer's instructions (Meso Scale Discovery, Gaitherburg, Md.).
The SULFO-TAG emits light upon electrochemical stimulation initiated at the electrode. MSD Sector instrument SI6000 was used for signal read-out.
The results are shown in Table 7 (value for untreated animals as control (Ctrl) was set at 100): […]

[3] = dose 10, s.c., 2 h after administration
[4] = dose 10, s.c., 4 h after administration
[5] = dose 10, p.o., 4 h after administration

| IC50 [1] [nM] | SMILES | Aβ40 (% vs Ctrl)_Mean [2, 3] [% vs Ctrl] | Aβ42 (% vs Ctrl)_Mean [2, 3] [% vs Ctrl] | Aβ40 (% vs Ctrl)_Mean [2, 4] [% vs Ctrl] | Aβ42 (% vs Ctrl)_Mean [2, 4] [% vs Ctrl] | Aβ40 (% vs Ctrl)_Mean [2, 5] [% vs Ctrl] | Aβ42 (% vs Ctrl)_Mean [2, 5] [% vs Ctrl] |
| --- | --- | --- | --- | --- | --- | --- | --- |
| 13.2 | Cn1cc2n(c1=O)C[C@@](C)(c1cc(NC(=O)c3ccc(C#N)cn3)ccc1F)N=C2N [Compound 1, N-{3-[(6R)-8-Amino-2,6-dimethyl-3-oxo-2,3,5,6-tetrahydroimidazo[1,5-a]pyrazin-6-yl]-4-fluorophenyl}-5-cyanopyridine-2-carboxamide] | 105 | 105 | 132 | 109 | – | – |
| 6.31 | Cn1cc2n(c1=O)C[C@@](C)(c1cc(NC(=O)c3ccc(Cl)cn3)ccc1F)N=C2N [Compound 4, N-{3-[(6R)-8-amino-2,6-dimethyl-3-oxo-5H-imidazo[1,5-a]pyrazin-6-yl]-4-fluoro-phenyl}-5-chloro-pyridine-2-carboxamide] | – | – | 121 | 125 | – | – |
| 57.5 | Cc1nc(C(=O)Nc2ccc(F)c([C@]3(C)Cn4c(cn(C)c4=O)C(N)=N3)c2)co1 [Compound 3, N-{3-[(6R)-8-Amino-2,6-dimethyl-3-oxo-2,3,5,6-tetrahydroimidazo[1,5-a]pyrazin-6-yl]-4-fluorophenyl}-2-methyl-1,3-oxazole-4-carboxamide] | – | – | – | – | 94 | 97 |
